Test results taken from US9884091B2, “Treatment of neurological diseases” (Lancaster University Business Enterprises Limited, priority 2014, dated 2018).

What was measured:
[1] = test system: APP/PS1 mouse model of AD; conditions: 12 months old APP/PS1 mice; cited from earlier work
[2] = test system: C57BL/6 mice given MPTP; assay: Open-field motor activity task, MPTP Parkinson mouse model; format: in vivo; conditions: FIG. 4; 25 nmol/kg i.p. once daily
Description: (§1) A standard model to induce Parkinson like symptoms in mice is the injection of the chemical (MPTP) (Li et al., 2009). This chemical impairs or kills neurons in the brain that produce dopamine. The mice develop motor impairments, and the dopaminergic neurons in the brain are reduced in numbers and function. The enzyme tyrosine hydroxylase (TH) is required to synthetise dopamine. A loss of TH signifies a loss of dopamine production (Harkavyi et al., 2008).
(§2) Adult male C57BL/6 mice were given the dopaminergic toxin MPTP (20 mg/kg in 0.1 mL of PBS i.p. at 2-h intervals of 4 doses MPTP; Sigma) or vehicle (PBS). This treatment selectively affects dopaminergic neurons and induces Parkinson-like symptoms in mice.
(§3) The dose of peptide tested was 25 nmol/kg body weight. The peptides were administered by a once-daily intraperitoneal injection for 8 weeks. Saline injections were administered as a control. Five animals per group were injected with a peptide or a saline control.
Open-Field Motor Activity Task
Mice (6 per group) received a session of 5 min in the empty open-field (58 cm in diameter; 35 cm high walls) with painted grey walls and grey floor. […] Motor activity was recorded by total path length and travel speed. Data were analysed using two-way ANOVA with post-hoc tests.

[3] = test system: C57BL/6 mice given MPTP; assay: Rotarod motor control test, MPTP Parkinson mouse model; format: in vivo; conditions: FIG. 3; 25 nmol/kg i.p. once daily
Description: as §1, §2, §3
Rotarod Motor Control Test
The rotarod consists of a rotating pole that accelerates over time. Mice are placed on the rod, and motor skills are tested by accelerating the rotation. As the rotation increases, animals lose grip and fall on a cushion located below the rod. […] Each animal's endurance time was recorded, and the average was calculated. Data were analysed using a one-way ANOVA with post-hoc Bonferroni tests.

[4] = test system: APP/PS1 transgenic mice; assay: Beta-amyloid plaque load in cortex by immunohistochemistry, transgenic Alzheimer's disease mouse model; format: in vivo; conditions: FIG. 1; 25 nmol/kg i.p. once daily for 8 weeks
Description: (§4) Transgenic Alzheimer's Disease Mouse Model
(§5) Animal models have been developed to test novel drugs. A standard model for Alzheimer's disease is transgenic mice that express human mutated genes for amyloid production that are known to induce Alzheimer's disease in humans. These APP/PS1 transgenic mice recapitulate some of the symptoms of Alzheimer's disease such as the aggregation of amyloid in the brain, memory loss and the loss of synapses (Radde et al., 2006).
(§6) The APP/PS1 mice express human Swedish mutated APP and human mutated presenilin-1 which induce Alzheimer's Disease in humans.
as §3
(§7) Brain Tissue Analysis for Amyloid Plaques and Synapse Numbers in AD Mice
(§8) Animals (5 per group) were perfused transcardially with 30 ml of ice-cold PBS and 30 ml of ice-cold 4% paraformaldehyde to postfix the brain. The brains were removed and placed in fresh 30% sucrose solution in PBS to cryoprotect tissue and cut at a thickness of 40 μm on a cryostat. Sections were chosen according to stereological rules, with the first section taken at random and every 5th section afterwards. Between 7 and 13 sections were analysed per brain. […]

[5] = test system: APP/PS1 transgenic mice; assay: Synaptic densities (synaptophysin immunohistochemistry) in cortex, transgenic Alzheimer's disease mouse model; format: in vivo; conditions: FIG. 2; 25 nmol/kg i.p. once daily for 8 weeks
Description: as §4, §5, §6, §3, §7, §8

Substance | amyloid plaque load [1] | synaptic plasticity in area CA1 of the hippocampus and spatial memory formation [1] | impairment of motor activity induced by MPTP [2] | impairment of motor skills induced by MPTP (rotarod endurance time) [3] | beta-amyloid plaque load in the cortex (% area positive for beta amyloid) [4] | beta-amyloid plaque load, compared with single GIP or GLP-1 analogues [4] | synapse loss in the cortex (synaptic densities) [5]
D-Ala^2-GIP | much reduced | unimpaired |  |  |  |  | 
YXEGTFTSDYSIYLDKQAAXEFV[Cys-40 kDAPEG]WLLAGGPSSGAPPPS[Lys-γE-C16]-NH2 (YXEGTFTSDYSIYLDKQAAXEFVXWLLAGGPSSGAPPPSX; 40 kDa PEG on Cys24; Lys γGlu-C16; C-amide; GIP/GLP1 co-agonist peptide; VARIANT 2, 20 Xaa = amino-isobutyric acid; VARIANT 24 Xaa = Cys with a covalently linked PEG molecule having an average molecular weight of 40kDa; VARIANT 40 Xaa = lysine residue connected to gamma- glutamate and C16, wherein C16 is a saturated fatty acid or palmitate) [DA2, pegylated version of DA1, position 24 modified to cysteine, γ-Glu spacer linking the C16 fatty acid] |  |  | protect mice from an impairment of motor activity | protect mice from an impairment of motor skills | reduces beta-amyloid plaque load | superior to the single GIP or GLP-1 analogues | protected from synapse loss
